What was measured:
GST-tagged MDMX = biological target: T1, GST-tagged MDMX (Homo sapiens, UniProt O15151); assay: HTRF binding assay of GST-tagged MDMX to p53 peptide
T1 sequence (O15151 1-490): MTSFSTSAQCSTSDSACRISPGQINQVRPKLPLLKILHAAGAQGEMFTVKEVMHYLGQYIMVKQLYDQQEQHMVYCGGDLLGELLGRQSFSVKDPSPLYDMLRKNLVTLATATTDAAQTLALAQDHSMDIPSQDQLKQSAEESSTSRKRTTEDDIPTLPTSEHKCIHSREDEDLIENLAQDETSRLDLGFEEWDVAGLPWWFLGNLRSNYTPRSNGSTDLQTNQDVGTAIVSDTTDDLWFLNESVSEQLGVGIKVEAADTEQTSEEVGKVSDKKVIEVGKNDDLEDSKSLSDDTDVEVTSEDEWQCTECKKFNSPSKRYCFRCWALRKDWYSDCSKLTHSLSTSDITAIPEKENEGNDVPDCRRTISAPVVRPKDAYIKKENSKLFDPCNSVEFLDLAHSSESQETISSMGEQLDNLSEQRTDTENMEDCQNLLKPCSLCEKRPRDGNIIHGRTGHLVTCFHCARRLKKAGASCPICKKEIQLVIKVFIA

[1] = biological target: recombinant GST-tagged MDM2 (Homo sapiens, UniProt Q00987); assay: HTRF assay of interaction between p53 peptide and GST-tagged MDM2; conditions: inhibition of GST-MDM2 (160 ng/ml) binding to biotinylated p53-peptide
Procedure, shortened: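 Compounds were preincubated with 160 ng/ml GST-MDM2 and 90 nM N-terminally biotinylated p53-like peptide (final) in 20 mM TBS, 0.02% BSA, 1 mM DTT for 1 h at 37 °C. Eu-anti-GST antibody and streptavidin-APC were added for 30 min at room temperature; binding read as TR-FRET at 665 and 615 nm.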

Chain of recombinant GST-tagged MDM2 (Q00987 whole entry): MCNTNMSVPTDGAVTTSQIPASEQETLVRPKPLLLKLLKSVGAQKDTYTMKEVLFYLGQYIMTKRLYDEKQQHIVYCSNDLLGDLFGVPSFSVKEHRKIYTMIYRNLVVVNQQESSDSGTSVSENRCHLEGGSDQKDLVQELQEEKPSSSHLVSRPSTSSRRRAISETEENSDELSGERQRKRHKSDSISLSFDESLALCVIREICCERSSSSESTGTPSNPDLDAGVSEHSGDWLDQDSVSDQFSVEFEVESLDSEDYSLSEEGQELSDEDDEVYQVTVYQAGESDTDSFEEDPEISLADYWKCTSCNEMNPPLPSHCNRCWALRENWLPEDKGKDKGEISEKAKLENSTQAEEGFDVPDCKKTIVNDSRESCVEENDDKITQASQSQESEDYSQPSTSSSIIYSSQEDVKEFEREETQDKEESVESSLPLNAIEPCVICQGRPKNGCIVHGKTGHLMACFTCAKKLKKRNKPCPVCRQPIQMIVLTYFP

Row | SMILES | IC50 (GST-tagged MDMX) [nM] | IC50 [1] [nM]
1 | CCOc1cc(Cl)c(S(C)(=O)=O)cc1C1=N[C@@](C)(c2ccc(Cl)cc2)[C@@](C)(c2ccc(Cl)cc2)N1C(=O)N1CCC(CC(N)=O)CC1 [Example 39, 2-{1-[(4S,5R)-2-(4-Chloro-2-ethoxy-5-methanesulfonyl-phenyl)-4,5-bis-(4-chloro-phenyl)-4,5-dimethyl-4,5-dihydro-imidazole-1-carbonyl]-piperidin-4-yl}-acetamide] | 1030 | 6.1
2 | CCOc1cc(Cl)c(S(C)(=O)=O)cc1C1=N[C@@](C)(c2ccc(Cl)cc2)[C@@](C)(c2ccc(Cl)cc2)N1C(=O)N1CCC(N(C)CCCN(C)C)C1 (stereo partly drawn) [Example 37, [(4S,5R)-2-(4-Chloro-2-ethoxy-5-methanesulfonyl-phenyl)-4,5-bis-(4-chloro-phenyl)-4,5-dimethyl-4,5-dihydro-imidazol-1-yl]-{3-[(3-dimethylamino-propyl)-methyl-amino]-pyrrolidin-1-yl}-methanone] | 3910 | 6.1
3 | CCOc1cc(Cl)c(S(C)(=O)=O)cc1C1=N[C@@](C)(c2ccc(Cl)cc2)[C@@](C)(c2ccc(Cl)cc2)N1C(=O)N1CCC(CS(C)(=O)=O)CC1 [Example 9, [(4S,5R)-2-(4-Chloro-2-ethoxy-5-methanesulfonyl-phenyl)-4,5-bis-(4-chloro-phenyl)-4,5-dimethyl-4,5-dihydro-imidazol-1-yl]-(4-methanesulfonylmethyl-piperidin-1-yl)-methanone] | 1700 | 5.8
4 | CCOc1cc(Cl)c(S(C)(=O)=O)cc1C1=N[C@@](C)(c2ccc(Cl)cc2)[C@@](C)(c2ccc(Cl)cc2)N1C(=O)N1CCC(CCCS(C)(=O)=O)CC1 [Example 22, [(4S,5R)-2-(4-Chloro-2-ethoxy-5-methanesulfonyl-phenyl)-4,5-bis-(4-chloro-phenyl)-4,5-dimethyl-4,5-dihydro-imidazol-1-yl]-[4-(3-methanesulfonyl-propyl)-piperidin-1-yl]-methanone] | 1350 | 4.6
5 | CC(C)Oc1cc(Cl)c(S(C)(=O)=O)cc1C1=N[C@@](C)(c2ccc(Cl)cc2)[C@@](C)(c2ccc(Cl)cc2)N1C(=O)N1CCN(CCCS(C)(=O)=O)CC1 [Example 40, [(4S,5R)-2-(4-Chloro-2-isopropoxy-5-methanesulfonyl-phenyl)-4,5-bis-(4-chloro-phenyl)-4,5-dimethyl-4,5-dihydro-imidazol-1-yl]-[4-(3-methanesulfonyl-propyl)-piperazin-1-yl]-methanone] | 290 | 6.1
6 | CCOc1cc(Cl)c(S(=O)(=O)N2CCCC2)cc1C1=N[C@@](C)(c2ccc(Cl)cc2)[C@@](C)(c2ccc(Cl)cc2)N1C(=O)N1CCC(CC(N)=O)CC1 [Example 56, 2-{1-[(4S,5R)-2-[4-Chloro-2-ethoxy-5-(pyrrolidine-1-sulfonyl)-phenyl]-4,5-bis-(4-chloro-phenyl)-4,5-dimethyl-4,5-dihydro-imidazole-1-carbonyl]-piperidin-4-yl}-acetamide] | 3430 | 8.5
7 | CCOc1cc(Cl)c(S(=O)(=O)NC(C)(C)C)cc1C1=N[C@@](C)(c2ccc(Cl)cc2)[C@@](C)(c2ccc(Cl)cc2)N1C(=O)N1CCN(CC(=O)NCC2CCCO2)CC1 (mixture of isomers) [Example 48, 2-{4-[(4S,5R)-2-(5-tert-Butylsulfamoyl-4-chloro-2-ethoxy-phenyl)-4,5-bis-(4-chloro-phenyl)-4,5-dimethyl-4,5-dihydro-imidazole-1-carbonyl]-piperazin-1-yl}-N-(tetrahydro-furan-2-ylmethyl)-acetamide] | 1330 | 11.7
8 | CCOc1cc(Cl)c(S(C)(=O)=O)cc1C1=N[C@@](C)(c2ccc(Cl)cc2)[C@@](C)(c2ccc(Cl)cc2)N1C(=O)N1CCC(O)CC1 [Example 38, [(4S,5R)-2-(4-Chloro-2-ethoxy-5-methanesulfonyl-phenyl)-4,5-bis-(4-chloro-phenyl)-4,5-dimethyl-4,5-dihydro-imidazol-1-yl]-(4-hydroxy-piperidin-1-yl)-methanone] | 2890 | 8.4
9 | CCOc1cc(Cl)c(S(C)(=O)=O)cc1C1=N[C@@](C)(c2ccc(Cl)cc2)[C@@](C)(c2ccc(Cl)cc2)N1C(=O)N1CCN(CCCS(=O)(=O)CC)CC1 [Example 14, [(4S,5R)-2-(4-Chloro-2-ethoxy-5-methanesulfonyl-phenyl)-4,5-bis-(4-chloro-phenyl)-4,5-dimethyl-4,5-dihydro-imidazol-1-yl]-[4-(3-ethanesulfonyl-propyl)-piperazin-1-yl]-methanone] | 1460 | 4.7
10 | CC(C)Oc1cc(Cl)c(S(=O)(=O)N2CCCC2)cc1C1=N[C@@](C)(c2ccc(Cl)cc2)[C@@](C)(c2ccc(Cl)cc2)N1C(=O)N1CCC(CC(N)=O)CC1 [Example 59, 2-{1-[(4S,5R)-2-[4-Chloro-2-isopropoxy-5-(pyrrolidine-1-sulfonyl)-phenyl]-4,5-bis-(4-chloro-phenyl)-4,5-dimethyl-4,5-dihydro-imidazole-1-carbonyl]-piperidin-4-yl}-acetamide] | 195 | 5.8
11 | CCOc1cc(Cl)c(S(C)(=O)=O)cc1C1=N[C@@](C)(c2ccc(Cl)cc2)[C@@](C)(c2ccc(Cl)cc2)N1C(=O)N1CCN(C[C@H](O)CO)CC1 [Example 3, [(4S,5R)-2-(4-Chloro-2-ethoxy-5-methanesulfonyl-phenyl)-4,5-bis-(4-chloro-phenyl)-4,5-dimethyl-4,5-dihydro-imidazol-1-yl]-[4-((S)-2,3-dihydroxy-propyl)-piperazin-1-yl]-methanone] | 1140 | 5.4
12 | CCOc1cc(Cl)c(S(C)(=O)=O)cc1C1=N[C@@](C)(c2ccc(Cl)cc2)[C@@](C)(c2ccc(Cl)cc2)N1C(=O)N1CCN(CC(N)=O)CC1 [Example 6, 2-{4-[(4S,5R)-2-(4-Chloro-2-ethoxy-5-methanesulfonyl-phenyl)-4,5-bis-(4-chloro-phenyl)-4,5-dimethyl-4,5-dihydro-imidazole-1-carbonyl]-piperazin-1-yl}-acetamide] | 1210 | 6.6
13 | CCOc1cc(Cl)c(S(C)(=O)=O)cc1C1=N[C@@](C)(c2ccc(Cl)cc2)[C@@](C)(c2ccc(Cl)cc2)N1C(=O)N1CCC(NC(N)=O)CC1 [Example 32, {1-[(4S,5R)-2-(4-Chloro-2-ethoxy-5-methanesulfonyl-phenyl)-4,5-bis-(4-chloro-phenyl)-4,5-dimethyl-4,5-dihydro-imidazole-1-carbonyl]-piperidin-4-yl}-urea] | 1460 | 5.2
14 | CC(C)Oc1cc(Cl)c(S(=O)(=O)NC(C)(C)C)cc1C1=N[C@@](C)(c2ccc(Cl)cc2)[C@@](C)(c2ccc(Cl)cc2)N1C(=O)N1CCN(CCCS(C)(=O)=O)CC1 [Example 63, 5-{(4S,5R)-4,5-Bis-(4-chloro-phenyl)-1-[4-(3-methanesulfonyl-propyl)-piperazine-1-carbonyl]-4,5-dimethyl-4,5-dihydro-1H-imidazol-2-yl}-N-tert-butyl-2-chloro-4-isopropoxy-benzenesulfonamide] | 212 | 4.4
15 | CCOc1cc(Cl)c(S(C)(=O)=O)cc1C1=N[C@@](C)(c2ccc(Cl)cc2)[C@@](C)(c2ccc(Cl)cc2)N1C(=O)N1CCN(CCS(C)(=O)=O)CC1 [Example 18, [(4S,5R)-2-(4-Chloro-2-ethoxy-5-methanesulfonyl-phenyl)-4,5-bis-(4-chloro-phenyl)-4,5-dimethyl-4,5-dihydro-imidazol-1-yl]-[4-(2-methanesulfonyl-ethyl)-piperazin-1-yl]-methanone] | 1430 | 6
16 | CCOc1cc(Cl)c(S(C)(=O)=O)cc1C1=N[C@@](C)(c2ccc(Cl)cc2)[C@@](C)(c2ccc(Cl)cc2)N1C(=O)N1CCC(NS(C)(=O)=O)CC1 [Example 33, N-{1-[(4S,5R)-2-(4-Chloro-2-ethoxy-5-methanesulfonyl-phenyl)-4,5-bis-(4-chloro-phenyl)-4,5-dimethyl-4,5-dihydro-imidazole-1-carbonyl]-piperidin-4-yl}-methanesulfonamide] | 1120 | 5.3
17 | CCOc1cc(Cl)c(S(C)(=O)=O)cc1C1=N[C@@](C)(c2ccc(Cl)cc2)[C@@](C)(c2ccc(Cl)cc2)N1C(=O)N1CCC(CC(N)=O)CC1 (racemic) [Example 5, 2-{1-[(4S,5R)-2-(4-Chloro-2-ethoxy-5-methanesulfonyl-phenyl)-4,5-bis-(4-chloro-phenyl)-4,5-dimethyl-4,5-dihydro-imidazole-1-carbonyl]-piperidin-4-yl}-acetamide] | 3660 | 15.3
18 | CC(C)Oc1cc(Cl)c(S(=O)(=O)N2C[C@H]3CC[C@@H](C2)O3)cc1C1=N[C@@](C)(c2ccc(Cl)cc2)[C@@](C)(c2ccc(Cl)cc2)N1C(=O)N1CCC(CC(N)=O)CC1 [Example 61, 2-{1-[(4S,5R)-2-{4-Chloro-2-isopropoxy-5-[(1R,5S)-(8-oxa-3-aza-bicyclo[3.2.1]oct-3-yl)sulfonyl]-phenyl}-4,5-bis-(4-chloro-phenyl)-4,5-dimethyl-4,5-dihydro-imidazole-1-carbonyl]-piperidin-4-yl}-acetamide] | 267 | 9.1
